Earlier results in patent publication US20200308169A1, “HETEROCYCLIC COMPOUNDS AS ANTIBACTERIALS” (JANSSEN SCIENCES IRELAND UNLIMITED COMPANY, priority 2016, published 2020).
In brackets after ≈: the same amount, converted by molar mass.

Columns and labels:
M. tuberculosis H37Rv = details: strain H37Rv, inside macrophages
[1] = tested on: replicating and non-replicating bacteria; details: both replicating and non-replicating bacteria

In the case of `CCc1nc2ccc(Cl)cn2c1C(=O)NCc1ccc(N2CCC(c3ccc(OC(F)(F)F)cc3)CC2)cc1` [Q203], the MIC50 (M. tuberculosis H37Rv) is given as 0.28 nM (≈ 0.156 ng/mL) and the “activity against replicating and non-replicating bacteria” value [1] is given as “highly active”.
